Laboratory results: ChEMBL document CHEMBL1667848, “Synthesis and evaluation of trehalose-based compounds as anti-invasive agents” (Bioorg Med Chem Lett, 2011)
≈ marks a conversion by molar mass, not a printed value.

Key:
[1] = Antiinvasive activity against mouse 26-L5 cells by transwell migration assay; format: functional, cell-based
[2] = Cytotoxicity against mouse 26-L5 cells upto 10 ug/ml; format: cell-based
[3] = Antiinvasive activity against mouse 26-L5 cells at 1 ug/ml by transwell migration assay; format: functional

Row | IC50 ([1]; Mus musculus, read-out: IC50) [µg/mL] | IC50 [1] | SMILES | Activity [2] | inhibition at 1 µg/mL [3] [%]
1 | 1 (≈ 1.64 µM) | – | COc1ccccc1C(=O)OC[C@H]1O[C@H](O[C@H]2O[C@H](COC(=O)c3ccccc3OC)[C@@H](O)[C@H](O)[C@H]2O)[C@H](O)[C@@H](O)[C@@H]1O | Non-toxic | –
2 | – | Not Active | Cc1ccccc1C(=O)OC[C@H]1O[C@H](O[C@H]2O[C@H](COC(=O)c3ccccc3C)[C@@H](O)[C@H](O)[C@H]2O)[C@H](O)[C@@H](O)[C@@H]1O | Non-toxic | –
3 | – | Not Active | COc1ccc(C(=O)OC[C@H]2O[C@H](O[C@H]3O[C@H](COC(=O)c4ccc(OC)cc4)[C@@H](O)[C@H](O)[C@H]3O)[C@H](O)[C@@H](O)[C@@H]2O)cc1 | Non-toxic | –
4 | 1 (≈ 1.72 µM) | – | O=C(OC[C@H]1O[C@H](O[C@H]2O[C@H](COC(=O)c3ccc(O)cc3)[C@@H](O)[C@H](O)[C@H]2O)[C@H](O)[C@@H](O)[C@@H]1O)c1ccc(O)cc1 | Non-toxic | –
5 | 0.1 (≈ 0.149 µM) | – | COc1cccc(C(=O)OC[C@H]2O[C@H](O[C@H]3O[C@H](COC(=O)c4cccc(OC)c4OC)[C@@H](O)[C@H](O)[C@H]3O)[C@H](O)[C@@H](O)[C@@H]2O)c1OC | Non-toxic | –
6 | – | Not Active | COc1cc(C(=O)OC[C@H]2O[C@H](O[C@H]3O[C@H](COC(=O)c4cc(OC)c(OC)c(OC)c4)[C@@H](O)[C@H](O)[C@H]3O)[C@H](O)[C@@H](O)[C@@H]2O)cc(OC)c1OC | Non-toxic | –
7 | – | Not Active | COc1cc(C(=O)OC[C@H]2O[C@H](O[C@H]3O[C@H](COC(=O)c4ccc(F)c(OC)c4)[C@@H](O)[C@H](O)[C@H]3O)[C@H](O)[C@@H](O)[C@@H]2O)ccc1F | Non-toxic | –
8 | 1 (≈ 1.61 µM) | – | O=C(OC[C@H]1O[C@H](O[C@H]2O[C@H](COC(=O)c3c(F)cccc3F)[C@@H](O)[C@H](O)[C@H]2O)[C@H](O)[C@@H](O)[C@@H]1O)c1c(F)cccc1F | Non-toxic | –
9 | 1 (≈ 1.5 µM) | – | CCNc1cccc(C)c1C(=O)OC[C@H]1O[C@H](O[C@H]2O[C@H](COC(=O)c3c(C)cccc3NCC)[C@@H](O)[C@H](O)[C@H]2O)[C@H](O)[C@@H](O)[C@@H]1O | Non-toxic | –
10 | < 1 | – | O=C(OC[C@H]1O[C@H](O[C@H]2O[C@H](COC(=O)c3cccc(O)c3O)[C@@H](O)[C@H](O)[C@H]2O)[C@H](O)[C@@H](O)[C@@H]1O)c1cccc(O)c1O | Non-toxic | 40
11 | < 1 | – | O=C(OC[C@H]1O[C@H](O[C@H]2O[C@H](COC(=O)c3ccccc3O)[C@@H](O)[C@H](O)[C@H]2O)[C@H](O)[C@@H](O)[C@@H]1O)c1ccccc1O | Non-toxic | 35
12 | 0.25 (≈ 0.389 µM) | – | Cc1cc(O)cc(O)c1C(=O)OC[C@H]1O[C@H](O[C@H]2O[C@H](COC(=O)c3c(C)cc(O)cc3O)[C@@H](O)[C@H](O)[C@H]2O)[C@H](O)[C@@H](O)[C@@H]1O [BRARTEMICIN] | Non-toxic | –
